From patent US7994200B2, “Cycloalkane-substituted pyrazoline derivatives, their preparation and use as medicaments” (Laboratorios del Dr. Esteve, S.A., priority 2005, dated 2011)
Like-named read-outs stand apart in the source and are kept apart here.

How the values were obtained:
[1] = molecular target: recombinant human cannabinoid 1 receptor (CB1) (Homo sapiens, UniProt P21554); experiment: [35S]GTPγS binding antagonistic assay against WIN 55,212-2, CHO cell membranes; assay type: biochemical; conditions: compound at 1 μM against WIN 55,212-2; 100% = effect of internal standard CB1-antagonist
Protocol: The percentage of catalepsy is determined according of the following formula: % Catalepsy=arithmetic mean/6×100 Antagonistic Assay: Materials and Methods. Membrane Preparation:
Chinese hamster ovary (CHO) cells stably expressing recombinant human cannabinoid 1 receptor (CB1) were cultured in nutrient mixture Ham's F 12 supplemented with 10% heat-inactivated fetal bovine serum, 2 mM L-glutamine, 50 U/ml penicillin, 50 U/ml streptomycin and 0.5 mg/ml geneticin. In order to obtain cells, culture flasks were washed twice with phosphate buffered saline and scraped. Then, cells were collected by centrifugation (200×g, 10 min) and stored dry at −80° C. Cells were homogenized in ice-cold 20 mM HEPES, 10 mM EDTA (pH 7.5) and centrifuged at 40,000×g for 15 min at 4° C. The pellet was resuspended in 20 mM HEPES, 0.1 mM EDTA (pH 7.5) and centrifuged for 15 min at 4° C. The final pellet was resuspended in 20 mM HEPES, 0.1 mM EDTA (pH 7.5), and divided in aliquots and stored at −80° C. until use.
[^35S]GTPγS Binding Assay:
The reaction was performed in 96-well plates. […] The incubation was terminated by rapid filtration through Millipore Multiscreen glass fiber FB, and rinsed two-times with ice-cold assay buffer. Filter plates were dried and 30 μl of scintillation liquid was added. Radioactivity was determined using Wallac Microbeta Trilux. Each experiment was performed at least in duplicate.
The average of basal [^35S]GTPγS binding was subtracted from all binding data.

CB1-Receptor = molecular target: T1, CB1-Receptor (Homo sapiens, UniProt P21554); experiment: In-vitro determination of affinity to CB1/CB2-Receptors, radioligand [3H]-CP55940; assay type: binding
T1 construct: purchased Receptor Biology, Inc
Protocol: Pharmacological Data: Pharmacological Methods I. In-vitro determination of affinity to CB1/CB2-Receptors
The in-vitro determination of the affinity of the inventive quaternary ammonium salts of substituted pyrazoline compounds to CB1/CB2-Receptors is carried out as described in the publication of Ruth A. Ross, Heather C. Brockie et al., “Agonist-inverse agonist characterization at CB1 and CB2 cannabinoid receptors of L-759633, L759656 and AM630”, British Journal of Pharmacology, 126, 665-672, (1999), whereby the transfected human CB1 and CB2 receptors of Receptor Biology, Inc. are used. The radioligand used for both receptors is [^3H]-CP55940. The respective parts of the description are hereby incorporated by reference and forms part of the present disclosure.
The affinity of the inventive substituted pyrazoline compounds to CB1/CB2 receptors was determined as described above.

[2] = In vivo testing for antiobesic activity, acute treatment; conditions: rats, acute oral administration
Protocol: III. In Vivo Testing for Antiobesic Activity a) Accute-Treatment
Normally handled rats were habituated to a reversed cycle 12/12 h, and the compound as well as saline was acutely orally administered. After administration the cumulated food intake (g) was measured at 6 h and 23 h. Following that the difference in body weight between control and compound treated animals was measured.

[3] = transfected human receptors, [3H]-CP55940, read-out: IC50

Chain of recombinant human cannabinoid 1 receptor (CB1) (P21554 whole entry): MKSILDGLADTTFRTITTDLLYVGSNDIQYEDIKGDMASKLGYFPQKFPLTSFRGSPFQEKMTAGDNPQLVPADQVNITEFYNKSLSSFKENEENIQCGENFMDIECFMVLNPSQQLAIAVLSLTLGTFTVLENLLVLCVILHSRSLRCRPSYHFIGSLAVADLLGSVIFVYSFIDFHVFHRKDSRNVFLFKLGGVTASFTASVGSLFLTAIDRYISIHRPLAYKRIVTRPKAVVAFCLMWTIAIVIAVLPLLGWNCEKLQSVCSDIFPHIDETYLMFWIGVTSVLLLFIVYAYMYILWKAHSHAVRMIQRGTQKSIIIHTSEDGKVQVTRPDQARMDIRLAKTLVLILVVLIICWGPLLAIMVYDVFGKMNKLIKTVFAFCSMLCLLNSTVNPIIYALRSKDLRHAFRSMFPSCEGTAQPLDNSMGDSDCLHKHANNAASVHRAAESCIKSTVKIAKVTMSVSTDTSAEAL
T1 sequence (P21554 whole entry): as above

C[C@H]1C(C(=O)NC2CCCCCC2)=NN(c2ccc(Cl)cc2Cl)[C@H]1c1ccc(Cl)cc1 (relative stereo) [Example 1, cis-5-(4-chlorophenyl)-N-cycloheptyl-1-(2,4-dichlorophenyl)-4-methyl-4,5-dihydro-1H-pyrazole-3-carboxamide]
Antagonism (%) [1]: 79 ± 18%
IC50 (CB1-Receptor; [3]): 31.9 nM

C[C@H]1C(C(=O)NC2CCCCCC2)=NN(c2ccc(Cl)cc2Cl)[C@H]1c1ccc(Br)cc1 (relative stereo) [Example 5, cis-5-(4-bromophenyl)-N-cycloheptyl-1-(2,4-dichlorophenyl)-4-methyl-4,5-dihydro-1H-pyrazole-3-carboxamide]
Antagonism (%) [1]: 58.1%
IC50 (CB1-Receptor; [3]): 30 nM

C[C@H]1C(C(=O)NC2CCCCCC2)=NN(c2ccc(Cl)cc2Cl)[C@H]1c1ccc(F)cc1 (relative stereo) [Example 7, cis-N-cycloheptyl-1-(2,4-dichlorophenyl)-5-(4-fluorophenyl)-4-methyl-4,5-dihydro-1H-pyrazole-3-carboxamide]
Antagonism (%) [1]: 83 ± 0%
IC50 (CB1-Receptor; [3]): 112 nM

COc1ccc([C@H]2[C@@H](C)C(C(=O)NC3CCCCCC3)=NN2c2ccc(Cl)cc2Cl)cc1 (relative stereo) [Example 11, cis-N-cycloheptyl-1-(2,4-dichlorophenyl)-5-(4-methoxyphenyl)-4-methyl-4,5-dihydro-1H-pyrazole-3-carboxamide]
Antagonism (%) [1]: 78 ± 8%
IC50 (CB1-Receptor): 66 nM

C[C@H]1C(C(=O)N[C@@H]2CCCC[C@H]2O)=NN(c2ccc(Cl)cc2Cl)[C@H]1c1ccc(Cl)cc1 [Example 15, (4R,5R)-5-(4-chlorophenyl)-1-(2,4-dichlorophenyl)-N-((1R,2R)-2-hydroxycyclohexyl)-4-methyl-4,5-dihydro-1H-pyrazole-3-carboxamide]
activity reducing body weight [2]: good activity

C[C@H]1C(C(=O)N[C@H]2CCCC[C@@H]2O)=NN(c2ccc(Cl)cc2Cl)[C@H]1c1ccc(Cl)cc1 [Example 17, (4R,5R)-5-(4-chlorophenyl)-1-(2,4-dichlorophenyl)-N-((1S,2S)-2-hydroxycyclohexyl)-4-methyl-4,5-dihydro-1H-pyrazole-3-carboxamide]
Antagonism (%) [1]: 13%

C[C@@H]1C(C(=O)N[C@H]2CCCC[C@@H]2O)=NN(c2ccc(Cl)cc2Cl)[C@@H]1c1ccc(Cl)cc1 [Example 18, (4S,5S)-5-(4-chlorophenyl)-1-(2,4-dichlorophenyl)-N-((1S,2S)-2-hydroxycyclohexyl)-4-methyl-4,5-dihydro-1H-pyrazole-3-carboxamide]
activity reducing body weight [2]: good activity
Antagonism (%) [1]: 93 ± 8%
IC50 (CB1-Receptor; [3]): 69 nM

COc1ccc([C@H]2[C@@H](C)C(C(=O)N[C@H]3CCCC[C@@H]3O)=NN2c2ccc(Cl)cc2Cl)cc1 [Example 29, (4R,5R)-5-(4-methoxyphenyl)-1-(2,4-dichlorophenyl)-N-((1S,2S)-2-hydroxycyclohexyl)-4-methyl-4,5-dihydro-1H-pyrazole-3-carboxamide]
Antagonism (%) [1]: 37%

COc1ccc([C@@H]2[C@H](C)C(C(=O)N[C@H]3CCCC[C@@H]3O)=NN2c2ccc(Cl)cc2Cl)cc1 [Example 30, (4S,5S)-5-(4-methoxyphenyl)-1-(2,4-dichlorophenyl)-N-((1S,2S)-2-hydroxycyclohexyl)-4-methyl-4,5-dihydro-1H-pyrazole-3-carboxamide]
Antagonism (%) [1]: 85%
